From article PMC3306125 (Journal of Medicinal Chemistry, 2012)
Values belong to the compound of their own block, whether it stands above or below them.

How the values were obtained:
[1] = test system: Topo II-DNA cleavage complexes; assay: Cellular Topo II inhibition; format: cell-based, human; settings: 90 nM DAU, 130 nM 7, […] 12b; for stabilized Topo II-DNA cleavage complexes, 30 min treatment: DU-145, 30 min; for stabilized Topo II-DNA cleavage complexes, 72 hour treatment: DU-145, 72 h
topoisomerase II = assay: KDNA decatenation assay; format: biochemical; settings: 50 μM drug, 10 min at 37°C, gel
acetyl tubulin = assay: Western blot of tubulin acetylation in DU-145 cells; settings: DU-145, 4 h; DAU 90, 500 nM; 7 130, 500 nM; 12b 1.31, 10 μM
HDAC 8 = biological target: T1, HDAC 8 (Homo sapiens, UniProt Q9BY41); assay: Recombinant HDAC 8 inhibition; settings: HDAC 8 vs HDAC 1
T1 sequence (Q9BY41 1-377): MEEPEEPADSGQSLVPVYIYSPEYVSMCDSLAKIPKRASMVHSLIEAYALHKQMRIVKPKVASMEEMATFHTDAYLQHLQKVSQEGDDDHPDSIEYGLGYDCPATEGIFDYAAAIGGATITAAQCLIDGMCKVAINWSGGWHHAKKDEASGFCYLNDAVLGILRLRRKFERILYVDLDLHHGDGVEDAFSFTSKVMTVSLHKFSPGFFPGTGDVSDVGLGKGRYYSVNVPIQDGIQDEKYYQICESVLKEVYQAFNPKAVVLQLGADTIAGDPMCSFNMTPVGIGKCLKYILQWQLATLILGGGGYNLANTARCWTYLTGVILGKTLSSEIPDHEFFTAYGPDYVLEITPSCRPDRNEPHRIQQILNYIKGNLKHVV

HDAC 6 = biological target: T2, HDAC 6 (Homo sapiens, UniProt Q9UBN7); assay: Recombinant HDAC 6 inhibition; format: biochemical
T2 sequence (Q9UBN7 1-1215): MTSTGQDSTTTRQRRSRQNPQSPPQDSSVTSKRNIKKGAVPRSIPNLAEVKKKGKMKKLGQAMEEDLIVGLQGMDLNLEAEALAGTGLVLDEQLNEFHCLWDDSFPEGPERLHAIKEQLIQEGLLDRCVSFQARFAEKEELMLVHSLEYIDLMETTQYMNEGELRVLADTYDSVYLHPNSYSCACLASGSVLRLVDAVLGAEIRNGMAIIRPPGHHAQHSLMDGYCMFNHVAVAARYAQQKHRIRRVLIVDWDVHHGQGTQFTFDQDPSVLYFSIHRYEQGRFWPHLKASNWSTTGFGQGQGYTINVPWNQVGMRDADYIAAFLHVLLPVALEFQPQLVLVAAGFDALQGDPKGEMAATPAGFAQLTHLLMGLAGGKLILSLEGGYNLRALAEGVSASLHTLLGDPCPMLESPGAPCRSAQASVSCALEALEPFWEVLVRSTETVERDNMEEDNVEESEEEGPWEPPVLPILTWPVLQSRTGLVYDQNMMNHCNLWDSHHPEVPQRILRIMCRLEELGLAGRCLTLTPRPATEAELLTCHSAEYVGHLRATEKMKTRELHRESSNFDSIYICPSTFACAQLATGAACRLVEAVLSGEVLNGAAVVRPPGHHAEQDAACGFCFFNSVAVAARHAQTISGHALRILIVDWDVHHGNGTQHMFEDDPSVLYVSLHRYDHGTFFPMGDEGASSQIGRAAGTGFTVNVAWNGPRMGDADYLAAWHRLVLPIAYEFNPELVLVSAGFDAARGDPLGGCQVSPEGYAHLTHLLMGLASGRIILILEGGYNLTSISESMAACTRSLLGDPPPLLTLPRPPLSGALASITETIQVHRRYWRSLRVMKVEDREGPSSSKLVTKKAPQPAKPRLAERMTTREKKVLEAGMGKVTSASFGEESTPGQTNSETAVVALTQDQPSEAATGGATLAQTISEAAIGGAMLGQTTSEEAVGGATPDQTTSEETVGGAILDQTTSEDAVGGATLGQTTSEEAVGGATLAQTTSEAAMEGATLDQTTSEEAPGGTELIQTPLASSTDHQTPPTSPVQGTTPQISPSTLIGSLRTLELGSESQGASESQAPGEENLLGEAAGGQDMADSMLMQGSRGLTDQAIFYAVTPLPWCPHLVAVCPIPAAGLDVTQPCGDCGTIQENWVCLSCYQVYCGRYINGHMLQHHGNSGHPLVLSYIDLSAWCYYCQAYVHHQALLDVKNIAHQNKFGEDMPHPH

[2] = test system: acetylated histones H4 and H3; assay: Western blot of histone H4 and H3 acetylation in DU-145 cells; format: cell-based, human; settings: DU-145, 24 h; SAHA 2.5, 5 μM; DAU 0.1, 0.5 μM; 7 0.5, 1 μM; 12b 2.5, 5 μM
HDAC 1 = HDAC 1 (Homo sapiens, UniProt Q13547); assay: Recombinant HDAC 1 inhibition; settings: 12c vs 12a
[3] = test system: HeLa cell nuclear extract HDACs (HDAC 1/2); assay: In vitro HDAC inhibition, HeLa nuclear extract; format: biochemical; settings: relative to 12a

Chain of HDAC 1 (Q13547 whole entry): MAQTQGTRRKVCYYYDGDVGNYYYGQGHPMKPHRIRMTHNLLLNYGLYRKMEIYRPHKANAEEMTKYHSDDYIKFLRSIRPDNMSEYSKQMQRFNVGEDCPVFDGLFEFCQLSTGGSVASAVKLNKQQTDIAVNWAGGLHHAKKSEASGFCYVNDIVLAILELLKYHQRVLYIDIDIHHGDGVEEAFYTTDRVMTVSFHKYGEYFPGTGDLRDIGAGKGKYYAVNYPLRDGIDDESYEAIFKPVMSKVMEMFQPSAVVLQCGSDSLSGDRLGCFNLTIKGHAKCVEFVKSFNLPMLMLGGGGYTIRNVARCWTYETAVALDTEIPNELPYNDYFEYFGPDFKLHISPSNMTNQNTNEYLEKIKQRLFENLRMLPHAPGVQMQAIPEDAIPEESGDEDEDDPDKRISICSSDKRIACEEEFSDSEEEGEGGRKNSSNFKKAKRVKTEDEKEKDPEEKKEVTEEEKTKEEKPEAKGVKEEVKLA

SMILES: COc1cccc2c1C(=O)c1c(O)c3c(c(O)c1C2=O)C[C@@](O)(C(C)=O)C[C@@H]3O[C@H]1C[C@H](NCc2ccc(NC(=O)CCCCCCC(=O)NO)cc2)[C@H](O)[C@H](C)O1 [Compound 7, Daunorubicin-N-benzyl-4-amino-8-oxooctahydroxamic Acid]
stabilized Topo II-DNA cleavage complexes, 30 min treatment [1]: indistinguishable from that of the control cells | stabilized Topo II-DNA cleavage complexes, 72 hour treatment [1]: measured increase in Topo II inhibition | Topo II inhibition (KDNA decatenation) (topoisomerase II): comparable levels to that of DAU | tubulin acetylation (immunoblot) (acetyl tubulin): moderate levels of acetylation | anti-HDAC 8 activity, fold less than anti-HDAC 1 activity (HDAC 8): about 4 fold

SMILES: COc1cccc2c1C(=O)c1c(O)c3c(c(O)c1C2=O)C[C@@](O)(C(C)=O)C[C@@H]3O[C@H]1C[C@H](NCc2ccc(-c3cn(CCCCC(=O)NO)nn3)cc2)[C@H](O)[C@H](C)O1 [Compound 12a, Daunorubicin-N-benzyl-4-triazolylpentahydroxamic Acid]
Topo II inhibition (KDNA decatenation) (topoisomerase II): lower Topo II inhibition activity | IC50 (HDAC 6): 600 nM

Topo II inhibition (KDNA decatenation) (topoisomerase II): comparable levels to that of DAU
SMILES: COc1cccc2c1C(=O)c1c(O)c3c(c(O)c1C2=O)C[C@@](O)(C(C)=O)C[C@@H]3O[C@H]1C[C@H](NCc2ccc(-c3cn(CCCCCC(=O)NO)nn3)cc2)[C@H](O)[C@H](C)O1 [Compound 12b, Daunorubicin-N-benzyl-4-triazolylhexahydroxamic Acid]
stabilized Topo II-DNA cleavage complexes, 30 min treatment [1]: significantly higher amount | stabilized Topo II-DNA cleavage complexes, 72 hour treatment [1]: drastic drop | tubulin acetylation (immunoblot) (acetyl tubulin): robust acetylation | histone H4 acetylation (immunoblot) [2]: strong H4 acetylation

SMILES: COc1cccc2c1C(=O)c1c(O)c3c(c(O)c1C2=O)C[C@@](O)(C(C)=O)C[C@@H]3O[C@H]1C[C@H](NCc2ccc(-c3cn(CCCCCCC(=O)NO)nn3)cc2)[C@H](O)[C@H](C)O1 [Compound 12c, Daunorubicin-N-benzyl-4-triazolylheptahydroxamic Acid]
Topo II inhibition (KDNA decatenation) (topoisomerase II): near total inhibition | fold activity difference between 12a and 12c, HDAC inhibitory activity (HDAC 1): ~ 600 fold

SMILES: COc1cccc2c1C(=O)c1c(O)c3c(c(O)c1C2=O)C[C@@](O)(C(C)=O)C[C@@H]3O[C@H]1C[C@H](NCc2ccc(-c3cn(CCCCCCCC(=O)NO)nn3)cc2)[C@H](O)[C@H](C)O1 [Compound 12d, Daunorubicin-N-benzyl-4-triazolyloctahydroxamic Acid]
fold more potent than 12a, HeLa nuclear extract HDACs [3]: about 20 fold | Topo II inhibition (KDNA decatenation) (topoisomerase II): lower Topo II inhibition activity

SMILES: COc1cccc2c1C(=O)c1c(O)c3c(c(O)c1C2=O)C[C@@](O)(C(C)=O)C[C@@H]3O[C@H]1C[C@H](N)[C@H](O)[C@H](C)O1 [DAU, daunomycin, reference compound]
stabilized Topo II-DNA cleavage complexes, 30 min treatment [1]: high levels | stabilized Topo II-DNA cleavage complexes, 72 hour treatment [1]: significant inhibition of Topo II activity | Topo II inhibition (KDNA decatenation) (topoisomerase II): severe impairment of DNA decatenation | tubulin acetylation (immunoblot) (acetyl tubulin): lowest levels of acetylation
